Key:
[1] = system: SAGPY (Arrowhead (Pygmaea)); assay: Preemergence weed control under flooded paddy conditions; assay type: in vivo, Sagittaria pygmaea; conditions: rated 3-4 weeks after treatment
Outline: (§1)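 Seeds or propagules sown in silt loam kept flooded 1.5-3 cm; compounds in 50/50 acetone/water pipetted into flood water at about 0.0313 to 0.500 kg/ha. Greenhouse; visual 0-9 rating versus untreated control 3-4 weeks after treatment.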

[2] = system: IPOHE (Morningglory, Ivyleaf); assay: Postemergence herbicidal evaluation; assay type: in vivo, Ipomoea hederacea
Outline: (§2)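 Scores (0–9) reflect plant stand, vigor, malformation, size, chlorosis and general appearance relative to control, read 4 to 5 weeks after treatment and averaged where tests were repeated. Application: about 0.0156–0.500 kg/ha sprayed at 40 psi onto two-week seedlings.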

CYPSE (Flatsedge) = assay: Preemergence weed control under flooded paddy conditions; assay type: in vivo, Cyperus serotinus; conditions: rated 3-4 weeks after treatment
Outline: as §1

ZEAMX (Corn, Field) = assay: Postemergence herbicidal evaluation; assay type: in vivo, Zea mays
Outline: as §2

[3] = system: ECHORC (Watergrass (Calif.)); assay: Postemergence weed control under flooded paddy conditions; assay type: in vivo, Echinochloa oryzoides; conditions: postemergence weeds, 3-4 weeks after treatment
Outline: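 With weeds 3 to 5 cm tall and rice at the 1.5 to 2.5 leaf stage, containers were flooded and water held 1.5 to 3 cm above soil. Compounds in 50/50 v/v aqueous/acetone went into the flood water at about 0.0313 to 0.500 kg/ha a.i. Effects were visually rated 0–9 against controls after three to four weeks in the greenhouse.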

[4] = system: GLXMAW (Soybean, Williams); assay: Preemergence herbicidal evaluation; assay type: in vivo, Glycine max, (L.) Merr. cv Williams; conditions: rated 4-5 weeks after treatment
Outline: (§3)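 In this greenhouse assay, monocot and dicot seeds are planted in soil and treated prior to emergence with an aqueous acetone spray (about 0.0156-0.500 kg/ha). Plants are assessed visually against control on a 0-9 scale after 4-5 weeks.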

AMBEL (Ragweed, Common) [5] = assay: Postemergence herbicidal evaluation; assay type: in vivo, Ambrosia artemisifolia
Outline: as §2

ABUTH (Velvetleaf) = assay: Preemergence herbicidal evaluation; assay type: in vivo, Abutilon theophrasti; conditions: rated 4-5 weeks after treatment
Outline: as §3

ECHCG (Barnyardgrass) = assay: Preemergence herbicidal evaluation; assay type: in vivo, Echinochloa crus-galli; conditions: rated 4-5 weeks after treatment
Outline: as §3

SETVI (Foxtail, Green) = assay: Preemergence herbicidal evaluation; assay type: in vivo, Setaria viridis; conditions: rated 4-5 weeks after treatment
Outline: as §3

[6] = system: GLXMAW (Soybean, Williams); assay: Postemergence herbicidal evaluation; assay type: in vivo, Glycine max, (L.) Merr. cv Williams
Outline: as §2

CASOB (Sicklepod) = assay: Preemergence herbicidal evaluation; assay type: in vivo, Cassia obtusifolia; conditions: rated 4-5 weeks after treatment
Outline: as §3

GALAP (Galium) = assay: Preemergence herbicidal evaluation; assay type: in vivo, Galium aparine; conditions: rated 4-5 weeks after treatment
Outline: as §3

AMBEL (Ragweed, Common) [7] = assay: Preemergence herbicidal evaluation; assay type: in vivo, Ambrosia artemisifolia; conditions: rated 4-5 weeks after treatment
Outline: as §3

Cn1c(C(F)(F)F)cc(=O)n(-c2cc(N=C3SCC(=O)N3[C@@H](Cc3ccccc3)C(=O)O)c(Cl)cc2F)c1=O [Compound 53, α-Benzyl-2-{{2-chloro-5-[3,6-dihydro-3-methyl-2,6-dioxo-4-(trifluoromethyl)-1(2H)-pyrimidinyl]-4-fluorophenyl}imino}-4-oxo-3-thiazolidineacetic acid, L-]
4.0: Preemergence herbicidal rating GLXMAW ([4]; rate 0.2500 kg/ha) | Preemergence herbicidal rating ECHCG (ECHCG (Barnyardgrass); rate 0.0625 kg/ha) | Preemergence herbicidal rating SETVI (SETVI (Foxtail, Green); rate 0.0625 kg/ha)
2.0: Herbicidal rating ECHORC ([3]; rate 0.1250 kg/ha) | Preemergence herbicidal rating GLXMAW ([4]; rate 0.1250 kg/ha)
3.0: Herbicidal rating ECHORC ([3]; rate 0.2500 kg/ha)
1.0: Preemergence herbicidal rating ECHCG (ECHCG (Barnyardgrass); rate 0.0313 kg/ha) | Preemergence herbicidal rating SETVI (SETVI (Foxtail, Green); rate 0.0313 kg/ha) | Preemergence herbicidal rating CASOB (CASOB (Sicklepod); rate 0.1250 kg/ha) | Preemergence herbicidal rating CASOB (CASOB (Sicklepod); rate 0.2500 kg/ha)
0.0: Herbicidal rating SAGPY ([1]; 0.0313 kg/ha) | Herbicidal rating SAGPY ([1]; 0.0625 kg/ha) | Herbicidal rating SAGPY ([1]; 0.1250 kg/ha) | Herbicidal rating SAGPY ([1]; 0.2500 kg/ha) | Herbicidal rating CYPSE (CYPSE (Flatsedge); 0.0313 kg/ha) | Herbicidal rating CYPSE (CYPSE (Flatsedge); 0.0625 kg/ha) | Herbicidal rating CYPSE (CYPSE (Flatsedge); 0.1250 kg/ha) | Herbicidal rating CYPSE (CYPSE (Flatsedge); 0.2500 kg/ha) | Herbicidal rating ECHORC ([3]; rate 0.0313 kg/ha) | Herbicidal rating ECHORC ([3]; rate 0.0625 kg/ha) | Preemergence herbicidal rating GLXMAW ([4]; rate 0.0313 kg/ha) | Preemergence herbicidal rating GLXMAW ([4]; rate 0.0625 kg/ha) | Preemergence herbicidal rating CASOB (CASOB (Sicklepod); rate 0.0313 kg/ha) | Preemergence herbicidal rating CASOB (CASOB (Sicklepod); rate 0.0625 kg/ha) | Preemergence herbicidal rating GALAP (GALAP (Galium); rate 0.0313 kg/ha) | Preemergence herbicidal rating GALAP (GALAP (Galium); rate 0.0625 kg/ha) | Preemergence herbicidal rating GALAP (GALAP (Galium); rate 0.1250 kg/ha) | Preemergence herbicidal rating AMBEL (AMBEL (Ragweed, Common) [7]; rate 0.0313 kg/ha)
7.5: Postemergence herbicidal rating ZEAMX (ZEAMX (Corn, Field); Rate 0.0315 kg/ha)
9.0: Postemergence herbicidal rating IPOHE ([2]; Rate 0.0158 kg/ha) | Postemergence herbicidal rating IPOHE ([2]; Rate 0.0315 kg/ha) | Postemergence herbicidal rating IPOHE ([2]; Rate 0.0630 kg/ha) | Postemergence herbicidal rating AMBEL (AMBEL (Ragweed, Common) [5]; Rate 0.0158 kg/ha) | Postemergence herbicidal rating AMBEL (AMBEL (Ragweed, Common) [5]; Rate 0.0315 kg/ha) | Postemergence herbicidal rating AMBEL (AMBEL (Ragweed, Common) [5]; Rate 0.0630 kg/ha) | Preemergence herbicidal rating ABUTH (ABUTH (Velvetleaf); rate 0.0625 kg/ha) | Preemergence herbicidal rating ABUTH (ABUTH (Velvetleaf); rate 0.1250 kg/ha) | Preemergence herbicidal rating ABUTH (ABUTH (Velvetleaf); rate 0.2500 kg/ha) | Preemergence herbicidal rating ECHCG (ECHCG (Barnyardgrass); rate 0.2500 kg/ha) | Preemergence herbicidal rating SETVI (SETVI (Foxtail, Green); rate 0.2500 kg/ha) | Postemergence herbicidal rating GLXMAW ([6]; Rate 0.0158 kg/ha) | Postemergence herbicidal rating GLXMAW ([6]; Rate 0.0315 kg/ha) | Postemergence herbicidal rating GLXMAW ([6]; Rate 0.0630 kg/ha) | Preemergence herbicidal rating AMBEL (AMBEL (Ragweed, Common) [7]; rate 0.0625 kg/ha) | Preemergence herbicidal rating AMBEL (AMBEL (Ragweed, Common) [7]; rate 0.1250 kg/ha) | Preemergence herbicidal rating AMBEL (AMBEL (Ragweed, Common) [7]; rate 0.2500 kg/ha)
8.0: Postemergence herbicidal rating ZEAMX (ZEAMX (Corn, Field); Rate 0.0630 kg/ha)
5.5: Postemergence herbicidal rating ZEAMX (ZEAMX (Corn, Field); Rate 0.0158 kg/ha)
7.0: Preemergence herbicidal rating ABUTH (ABUTH (Velvetleaf); rate 0.0313 kg/ha) | Preemergence herbicidal rating ECHCG (ECHCG (Barnyardgrass); rate 0.1250 kg/ha) | Preemergence herbicidal rating SETVI (SETVI (Foxtail, Green); rate 0.1250 kg/ha) | Preemergence herbicidal rating GALAP (GALAP (Galium); rate 0.2500 kg/ha)
